Measured values as given in PubChem BioAssay (NCI).
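Five compound concentrations were applied to cells in 96-well plates for 48 hours; endpoints were derived by simple linear interpolation of the resulting dose-response curve. The concentration for 50% growth inhibition is given as GI50. The concentration for full growth arrest is given as TGI.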

Assays:
Experiment in all cases: NCI-60 cell line screen, 48 h; in the data active = GI50 below about 0.43 µM; inactive = the rest
U251 CNS = test system: U251 CNS
SW-620 colon = test system: SW-620 colon
HOP-62 NSCLC = test system: HOP-62 NSCLC
HT29 colon = test system: HT29 colon
RXF 393 renal = test system: RXF 393 renal
HS 578T breast = test system: HS 578T breast
UACC-257 melanoma = test system: UACC-257 melanoma
IGROV1 ovarian = test system: IGROV1 ovarian
NCI-H522 lung = test system: NCI-H522 lung
OVCAR-8 ovarian = test system: OVCAR-8 ovarian
K-562 leukemia = test system: K-562 leukemia
NCI-H460 lung = test system: NCI-H460 lung
SR leukemia = test system: SR leukemia
UO-31 renal = test system: UO-31 renal
OVCAR-3 ovarian = test system: OVCAR-3 ovarian
CAKI-1 renal = test system: CAKI-1 renal
DU-145 prostate = test system: DU-145 prostate
OVCAR-4 ovarian = test system: OVCAR-4 ovarian
HOP-92 NSCLC = test system: HOP-92 NSCLC
T-47D breast = test system: T-47D breast
SK-MEL-5 melanoma = test system: SK-MEL-5 melanoma
SF-295 CNS = test system: SF-295 CNS
SF-268 CNS = test system: SF-268 CNS
SK-OV-3 ovarian = test system: SK-OV-3 ovarian
NCI-H226 lung = test system: NCI-H226 lung
SK-MEL-2 melanoma = test system: SK-MEL-2 melanoma
UACC-62 melanoma = test system: UACC-62 melanoma
BT-549 breast = test system: BT-549 breast
CCRF-CEM leukemia = test system: CCRF-CEM leukemia
RPMI-8226 leukemia = test system: RPMI-8226 leukemia
EKVX NSCLC = test system: EKVX NSCLC
KM12 colon = test system: KM12 colon
NCI-H23 lung = test system: NCI-H23 lung
HL-60(TB) leukemia = test system: HL-60(TB) leukemia
SK-MEL-28 melanoma = test system: SK-MEL-28 melanoma
MOLT-4 leukemia = test system: MOLT-4 leukemia
COLO 205 colon = test system: COLO 205 colon
MDA-MB-435 = test system: MDA-MB-435
A498 renal = test system: A498 renal
TK-10 renal = test system: TK-10 renal
HCT-15 colon = test system: HCT-15 colon
786-0 renal = test system: 786-0 renal
SF-539 CNS = test system: SF-539 CNS
MDA-MB-231 breast = test system: MDA-MB-231 breast
OVCAR-5 ovarian = test system: OVCAR-5 ovarian
SN12C renal = test system: SN12C renal
HCC-2998 colon = test system: HCC-2998 colon
NCI/ADR-RES ovarian = test system: NCI/ADR-RES ovarian
ACHN renal = test system: ACHN renal
MCF7 breast = test system: MCF7 breast
SNB-19 CNS = test system: SNB-19 CNS
HCT-116 colon = test system: HCT-116 colon
PC-3 prostate = test system: PC-3 prostate
M14 melanoma = test system: M14 melanoma
A549 NSCLC = test system: A549 NSCLC
LOX IMVI melanoma = test system: LOX IMVI melanoma
SNB-75 CNS = test system: SNB-75 CNS
MALME-3M melanoma = test system: MALME-3M melanoma

CC(C)(C)OC(=O)N(CCCN)CCCCN
> 100 µM: TGI (U251 CNS) | TGI (SW-620 colon) | TGI (HOP-62 NSCLC) | TGI (HT29 colon) | TGI (RXF 393 renal) | TGI (HS 578T breast) | TGI (UACC-257 melanoma) | TGI (IGROV1 ovarian) | TGI (NCI-H522 lung) | TGI (OVCAR-8 ovarian) | TGI (K-562 leukemia) | TGI (NCI-H460 lung) | TGI (SR leukemia) | TGI (UO-31 renal) | TGI (OVCAR-3 ovarian) | TGI (CAKI-1 renal) | TGI (DU-145 prostate) | TGI (OVCAR-4 ovarian) | TGI (HOP-92 NSCLC) | TGI (T-47D breast) | TGI (SK-MEL-5 melanoma) | TGI (SF-295 CNS) | TGI (SF-268 CNS) | TGI (SK-OV-3 ovarian) | TGI (NCI-H226 lung) | TGI (SK-MEL-2 melanoma) | TGI (UACC-62 melanoma) | TGI (BT-549 breast) | TGI (CCRF-CEM leukemia) | TGI (RPMI-8226 leukemia) | TGI (EKVX NSCLC) | TGI (KM12 colon) | TGI (NCI-H23 lung) | TGI (HL-60(TB) leukemia) | TGI (SK-MEL-28 melanoma) | TGI (MOLT-4 leukemia) | TGI (COLO 205 colon) | TGI (MDA-MB-435) | TGI (A498 renal) | TGI (TK-10 renal) | TGI (HCT-15 colon) | TGI (786-0 renal) | TGI (SF-539 CNS) | TGI (MDA-MB-231 breast) | TGI (OVCAR-5 ovarian) | TGI (SN12C renal) | TGI (HCC-2998 colon) | TGI (NCI/ADR-RES ovarian) | TGI (ACHN renal) | TGI (MCF7 breast) | TGI (SNB-19 CNS) | TGI (HCT-116 colon) | TGI (PC-3 prostate) | TGI (M14 melanoma) | TGI (A549 NSCLC)

COC(=O)C(C)NP(=O)(OCc1ccc(Cn2cnc3c(N)ncnc32)cc1)Oc1ccccc1 (centres undefined)
63.4 µM: TGI (HCT-116 colon)
> 84.9 µM: TGI (SK-MEL-28 melanoma)
inactive: GI50 (U251 CNS) 37.3 µM | GI50 (SW-620 colon) > 83.5 µM | GI50 (HOP-62 NSCLC) > 68.6 µM | GI50 (HT29 colon) > 67.8 µM | GI50 (RXF 393 renal) 81.5 µM | GI50 (HS 578T breast) 15.5 µM | GI50 (UACC-257 melanoma) > 100 µM | GI50 (IGROV1 ovarian) 39.1 µM | GI50 (NCI-H522 lung) 28.4 µM | GI50 (OVCAR-8 ovarian) 76.8 µM | GI50 (K-562 leukemia) > 93.1 µM | GI50 (NCI-H460 lung) 67.9 µM | GI50 (SR leukemia) > 100 µM | GI50 (UO-31 renal) > 100 µM | GI50 (OVCAR-3 ovarian) 34.7 µM | GI50 (LOX IMVI melanoma) 21.4 µM | GI50 (DU-145 prostate) > 100 µM | GI50 (OVCAR-4 ovarian) > 100 µM | GI50 (HOP-92 NSCLC) 29.8 µM | GI50 (T-47D breast) > 56.7 µM | GI50 (SK-MEL-5 melanoma) 6.39 µM | GI50 (SF-295 CNS) > 78.9 µM | GI50 (SF-268 CNS) 36.9 µM | GI50 (SK-OV-3 ovarian) > 100 µM | GI50 (NCI-H226 lung) > 93.5 µM | GI50 (SK-MEL-2 melanoma) > 73.9 µM | GI50 (UACC-62 melanoma) 28.6 µM | GI50 (SNB-75 CNS) 40.1 µM | GI50 (BT-549 breast) 24.2 µM | GI50 (CCRF-CEM leukemia) 50 µM | GI50 (RPMI-8226 leukemia) 17.1 µM | GI50 (EKVX NSCLC) > 81.2 µM | GI50 (KM12 colon) 25.2 µM | GI50 (NCI-H23 lung) 36.5 µM | GI50 (HL-60(TB) leukemia) 79.9 µM | GI50 (SK-MEL-28 melanoma) 30.4 µM | GI50 (MOLT-4 leukemia) 32.2 µM | GI50 (COLO 205 colon) > 91.6 µM | GI50 (MDA-MB-435) 43 µM | GI50 (A498 renal) > 100 µM | GI50 (TK-10 renal) > 100 µM | GI50 (HCT-15 colon) > 100 µM | GI50 (786-0 renal) > 100 µM | GI50 (SF-539 CNS) > 100 µM | GI50 (MDA-MB-231 breast) > 63.4 µM | GI50 (OVCAR-5 ovarian) > 100 µM | GI50 (SN12C renal) 73.4 µM | GI50 (HCC-2998 colon) 27.7 µM | GI50 (NCI/ADR-RES ovarian) > 100 µM | GI50 (ACHN renal) > 100 µM | GI50 (MALME-3M melanoma) 20.8 µM | GI50 (MCF7 breast) 36.8 µM | GI50 (SNB-19 CNS) > 64.2 µM | GI50 (HCT-116 colon) 26 µM | GI50 (PC-3 prostate) 31.3 µM | GI50 (M14 melanoma) 55.4 µM | GI50 (A549 NSCLC) > 84.2 µM
65.3 µM: TGI (RPMI-8226 leukemia)
> 100 µM: TGI (U251 CNS) | TGI (SW-620 colon) | TGI (HOP-62 NSCLC) | TGI (HT29 colon) | TGI (RXF 393 renal) | TGI (UACC-257 melanoma) | TGI (IGROV1 ovarian) | TGI (OVCAR-8 ovarian) | TGI (K-562 leukemia) | TGI (NCI-H460 lung) | TGI (SR leukemia) | TGI (UO-31 renal) | TGI (DU-145 prostate) | TGI (OVCAR-4 ovarian) | TGI (HOP-92 NSCLC) | TGI (T-47D breast) | TGI (SF-295 CNS) | TGI (SF-268 CNS) | TGI (SK-OV-3 ovarian) | TGI (NCI-H226 lung) | TGI (SK-MEL-2 melanoma) | TGI (SNB-75 CNS) | TGI (CCRF-CEM leukemia) | TGI (EKVX NSCLC) | TGI (NCI-H23 lung) | TGI (HL-60(TB) leukemia) | TGI (MOLT-4 leukemia) | TGI (COLO 205 colon) | TGI (MDA-MB-435) | TGI (A498 renal) | TGI (TK-10 renal) | TGI (HCT-15 colon) | TGI (786-0 renal) | TGI (SF-539 CNS) | TGI (MDA-MB-231 breast) | TGI (OVCAR-5 ovarian) | TGI (SN12C renal) | TGI (NCI/ADR-RES ovarian) | TGI (ACHN renal) | TGI (MCF7 breast) | TGI (SNB-19 CNS) | TGI (PC-3 prostate) | TGI (M14 melanoma) | TGI (A549 NSCLC)
> 94.1 µM: TGI (UACC-62 melanoma)
> 82.1 µM: TGI (OVCAR-3 ovarian)
49.7 µM: TGI (HS 578T breast)
> 96.1 µM: TGI (KM12 colon)
53.8 µM: TGI (LOX IMVI melanoma)
72.5 µM: TGI (BT-549 breast)
33.4 µM: TGI (SK-MEL-5 melanoma)
> 69 µM: TGI (NCI-H522 lung)
84.4 µM: TGI (HCC-2998 colon)
57 µM: TGI (MALME-3M melanoma)
